Results published in patent US20150344426A1, “COMPOUNDS AND THERAPEUTIC USES THEREOF” (ALZHEIMER'S INSTITUTE OF AMERICA, INC., priority 2012, published 2015).

Columns and labels:
[1] = Stability assessment / semi-quantitative hygroscopicity in a relative humidity (RH) chamber; assay type: physicochemical; settings: solid in RH chamber; morphology and parent:prodrug composition
Method: “ND” in Table 2 refers to “No Data”. Purity was determined by HPLC. Melting point was determined by differential scanning calorimetry (“DSC”), and semi-quantitative hygroscopicity was determined in a relative humidity (“RH”) chamber.

[2] = Stability in mouse liver microsomal preparations; assay type: in vitro ADME; settings: liver microsomes, with and without 1 mM NADPH (not said which), read-out: Mouse Liver Microsomes t1/2
Method: (§1) Relative stability of Example Compound Nos. 1 through 60 in mouse plasma and mouse liver microsomal preparations.
(§2) Certain Example Compounds were each added to a final concentration of 1 μM to 1 mL of each of mouse plasma and mouse liver microsomal preparations (with and without 1 mM NADPH). Stability assays were run in duplicate and were sampled at 0, 5, 15, 30, 60 and 120 minutes as follows: one hundred microliter aliquots of samples were removed at the specified sampling times, and the reaction was quenched with 400 μL of acetonitrile.
(§3) Samples were analyzed by HPLC-ESI-MS/MS by measuring the peak area of both the starting Example Compound and parent compound (i.e., either Parent Compound A or Parent Compound B) that were created by removal of the Prodrug Moiety (as defined in Section 6 herein).

[3] = Stability in mouse plasma; assay type: in vitro ADME; settings: read-out: Mouse Plasma t1/2
Method: as §1, §2, §3

[4] = tested on: HT1080 human fibrosarcoma cancer cells; assay: Anti-tumor activity in HT1080 human fibrosarcoma xenograft with twice daily dosing; assay type: in vivo; settings: for animals with no detectable tumors by the end of the study: cohort of ten
Method: One million HT1080 cells were implanted subcutaneously in the right flank of female nude mice (Crl:NU-Fox1^nu). When the median tumor volume (MTV) was approximately 209 mm^3, mice were randomized into four cohorts of ten animals. […] All cohorts were dosed twice daily for 7 days. The mice were observed daily for mortality and signs of toxicity. Tumor volumes and body weights were determined from Days 1 to 22. The results are depicted in FIG. 4.

[5] = Kinetic solubility (iSol Explorer method); assay type: physicochemical; settings: system solution buffer (pION), aqueous buffer, kinetic from dmso stock
Method: Kinetic solubility was determined using the iSol Explorer method (pION Inc.; Woburn, Mass.). Certain Example Compounds were dissolved in dimethylsulfoxide (DMSO; >99.9% ACS spectrophotometric grade; Sigma-Aldrich, St. Louis, Mo.) to a concentration of 100 mM. The DMSO stock was diluted 1:100 in system solution buffer (pION Inc. Wobum Mass.) that had been adjusted to the desired pH (5.0, 6.8, and 7.4) with either HCl or NaOH. The diluted samples in the desired buffer were incubated for 15 minutes at room temperature and filtered using 96-well plate with 0.25 mm glass fiber/1.2 μm polyethersulfone filter bottoms (Corning, Inc.; Corning, N.Y.). The filtrate is transferred to a second 96-well plate and read on a SpectraMAX 190 (Molecular Devices; Sunnyvale, Calif.) scanning from 190 to 498 nm. The data are analyzed with Sol Explorer Command version 2.2, (pION Inc. Woburn, Mass.) and the concentration reported in molarity and/or mass per volume.

[6] = Example Compounds 44/45 study, 8 mg/kg twice daily for 7 days, Day 9
[7] = Example Compounds 44/45 study, 8 mg/kg twice daily for 7 days, end of the study, Day 22
[8] = Example Compounds 44/45 study, 12 mg/kg twice daily for 7 days, Day 9
[9] = Example Compounds 44/45 study, 12 mg/kg twice daily for 7 days, end of the study, Day 22
[10] = pH 5.0, 15 minutes at room temperature
[11] = pH 6.8, 15 minutes at room temperature
[12] = pH 7.4, 15 minutes at room temperature

CC(C)C(=O)OC[n+]1cccc(CNC(=O)Nc2ccc(OCCc3ccccc3-c3ccccc3)cc2)c1 [Example 44, 3-{[({4-[2-(Biphenyl-2-yl)ethoxy]phenyl}carbamoyl)amino]methyl}-1-{[(2-methylpropanoyl)oxy]methyl}pyridinium]
Stability at 40° C. and 75% RH [1]: No change in morphology at 14 days, circa 7:93 parent to prodrug | Stability at 60° C. and 75% RH [1]: Deliquesced at 5 days approximately 50:50 parent to prodrug | half-life at 1 µM [2]: < 5 min | half-life at 1 µM [3]: < 5 min | animals with no detectable tumors by the end of the study ([4]; Example Compounds 44/45 study, 8 mg/kg): One | animals with no detectable tumors by the end of the study ([4]; Example Compounds 44/45 study, 12 mg/kg): three | MTV decrease [4, 6]: 62% | tumor regression [4, 6]: 62% | MTV increase [4, 7]: 16% | tumor growth inhibition [4, 7]: 95% | MTV decrease [4, 8]: 67% | tumor regression [4, 8]: 67% | MTV decrease [4, 9]: 67% | tumor regression [4, 9]: 67% | anti-tumor activity in the HT1080 xenograft model (summary statement) ([4]; administered orally, twice daily, all doses tested): significant anti-tumor activity | Tolerability ([4]; xenograft mice, all doses tested, orally twice daily): well tolerated

CC(=O)OC[n+]1cccc(CNC(=O)Nc2ccc(OCCc3ccccc3-c3ccccc3)cc2)c1 [Example 34, 1-[(Acetyloxy)methyl]-3-{[({4-[2-(biphenyl-2-yl)ethoxy]phenyl}carbamoyl)amino]methyl}pyridinium]
solubility at 15 min [5, 10]: 397 µM | solubility at 15 min [5, 11]: 393 µM | solubility at 15 min [5, 12]: 399 µM | half-life at 1 µM [2]: < 5 min

CC(C)(C)C(=O)OC[n+]1cccc(CNC(=O)Nc2ccc(OCCc3ccccc3-c3ccccc3)cc2)c1 [Example 36, 3-{[({4-[2-(Biphenyl-2-yl)ethoxy]phenyl}carbamoyl)amino]methyl}-1-{[(2,2-dimethylpropanoyl)oxy]methyl}pyridinium]
Stability at 60° C. and 75% RH [1]: Oiled out at 1 hr No change in composition | solubility at 15 min [5, 10]: 601 µM | solubility at 15 min [5, 11]: 547 µM | solubility at 15 min [5, 12]: 524 µM

CC(=O)OC(C)[n+]1cccc(CNC(=O)Nc2ccc(OCCc3ccccc3-c3ccccc3)cc2)c1 (centres unmarked) [Example 37, 1-[1-(Acetyloxy)ethyl]-3-{[({4-[2-(biphenyl-2-yl)ethoxy]phenyl}carbamoyl)amino]methyl}pyridinium]
Stability at 40° C. and 75% RH [1]: Deliquesced at 2 Hr No change in composition | Stability at 60° C. and 75% RH [1]: Deliquesced at 2 Hr No change in composition | half-life at 1 µM [2]: 18.7 min | half-life at 1 µM [3]: > 5 min

CC(C)C(OC(=O)C(C)(C)C)[n+]1cccc(CNC(=O)Nc2ccc(OCCc3ccccc3-c3ccccc3)cc2)c1 (centres unmarked) [Example 40, 3-{[({4-[2-(Biphenyl-2-yl)ethoxy]phenyl}carbamoyl)amino]methyl}-1-{1-[(2,2-dimethylpropanoyl)oxy]-2-methylpropyl}pyridinium]
Stability at 40° C. and 75% RH [1]: No change in morphology at 14 days, only prodrug observed | Stability at 60° C. and 75% RH [1]: Approximately 5:95 parent to prodrug moiety observed at 14 days | half-life at 1 µM [2]: 399 min | half-life at 1 µM [3]: 53.5 min
